Data from US20210391038A1, “SPECIFICALLY-SHAPED CRYSTAL OF COMPOUND AND METHOD FOR PRODUCING SAME” (TOWA PHARMACEUTICAL CO., LTD., priority 2018, published 2021).
Structures can show the parent of a compound that is named as a salt. Where two headings read alike, the source gives them in different places.

Assays:
Assay type in all cases: physicochemical
[1] = Particle size from SEM images (equivalent circle diameter, mean particle size, crystal size); conditions: for equivalent circle diameter: SEM image, ImageJ, trihydrate
Protocol: “Equivalent circle diameter” in the present description is a diameter of a perfect circle corresponding to the area of individual particles in an image of particles taken by SEM, and is calculated from randomly selected 5 to 800 particles using image processing software ImageJ. The equivalent circle diameter of a spherulite obtained by the method of the present invention is preferably 25 μm or more, 30 μm or more, 35 μm or more, 40 μm or more, 45 μm or more, or 50 μm or more and 100 μm or less, 120 μm or less, 150 μm or less, 200 μm or less, 250 μm or less, 300 μm or less, 500 μm or less, or 1,000 μm or less. More preferably, the equivalent circle diameter is 25 to 500 μm or 30 to 300 μm.
(§1) The particle size distribution was measured in a dry manner using a spray particle size distribution analyzer AEROTRAC LDSA-SPR3500A manufactured by Microtrac Inc. The particle size distribution in Examples 2 and 7 was measured in a dry manner using a laser diffraction particle size distribution measurement MASTERSIZER 3000 manufactured by Malvern Panalytical Ltd. SEM images were measured using a scanning electron microscope JSM-IT100 manufactured by JEOL Ltd. Light microscope images were measured using an upright microscope BX53M manufactured by Olympus Corporation and a microscope digital camera DP74 manufactured by Olympus Corporation. Images for measuring the number of particles were obtained by a scanner GT-X830 manufactured by SEIKO EPSON CORPORATION. The powder X-ray diffraction (XRD) was measured using a desktop X-ray diffraction device MiniFlex300 manufactured by Rigaku Corporation. The specific surface area was measured by the BET fluid process (gas used: pure nitrogen) using a fully automatic specific surface area measuring device Macsorb HM-1208 manufactured by Mountech Co., Ltd. The moisture content was measured using a trace moisture measuring device AQ-2200 manufactured by […] SANGYO Co., Ltd. The dissolution profile was measured using μDISS Profiler manufactured by Pion Inc. Centrifugal classification was performed using a high-efficiency precision forced air classifier Lab Calssiel N-01 manufactured by SEISHIN […] Co., Ltd. Image analysis was performed using image processing software ImageJ developed by the National Institute of Health (NIH). The particle strength was measured using a particle hardness measuring device NEW GRANO manufactured by OKADA SEIKO CO., LTD. The true density was measured using a dry automatic densimeter AccuPyc II 1340-10CC manufactured by Shimadzu Corporation. The purity of a compound was measured by a high performance liquid chromatograph (LC-20A) manufactured by Shimadzu Corporation.
The spherulite of azithromycin monohydrate produced in Example 12 was cut, and the section was observed by SEM (FIG. 4). The crystal size at the outer edge was 5 to 10 μm, while the crystal size at the center was 0.2 to 1 μm.

[2] = Sphericity from SEM images (ImageJ); set-up: key: 1 = true sphere; closer to 1 = more spherical; mean of ≥5 particles; conditions: for sphericity of the spherulite: SEM image analysis, mean of particles
Text: In the present description, “spherulite” means a crystal aggregate (polycrystal) which has a radial or concentric thin layered structure and has a spherical outer shape. Whether the crystal obtained by the method of the present invention is a spherulite or not can be determined, for example, by observing the outer shape of the crystal using SEM. For example, it can be discriminated by cutting the crystal aggregate and observing the internal structure thereof using SEM. The sphericity of the spherulite obtained by the method of the present invention is usually 0.60 or more, preferably 0.70 or more, more preferably 0.80 or more, particularly preferably 0.90 or more, and most preferably 0.95 or more. The sphericity can be calculated by the following method.
When an image of particles taken by SEM is analyzed using image processing software ImageJ, a coordinate group representing the position of pixels forming the outline of a particle is obtained. The length of the coordinate group is defined as N, and one pixel coordinate of each outline is defined as p[i] (1≤i≤N). The angle between a straight line l(k) connecting two points p[k] and p[k+N/D] and a straight line m(k) connecting two points p[k+N/D] and p[k+2N/D] is defined as θ(k) (−180°<θ<180°) (1≤k≤N, 1≤D≤N). D corresponds to the number of partitions of the outline. When N/D is not a natural number, the value is defined as the quotient obtained by dividing N by D. By calculating this angle with k=1 to N, N pieces of θ value can be obtained.
When the particle is a true sphere, θ(k) is 360/D, and the closer the particle is to a true sphere, the closer θ(k) is to this value. The error between θ(k) and the true value 360/D is evaluated by the root-mean-square error (RMSE) of the following formula:
Using the RMSE value of when D is 10 (θ(k)=36°), the sphericity is defined by the following formula: […]
The sphericity is 1 in a true sphere, and the closer the particle is to a true sphere, the closer the sphericity is to 1. Meanwhile, the sphericity of an ellipse whose long axis is infinitely long is zero. The sphericity is measured for five or more particles to calculate the mean. This mean is defined as the sphericity of each sample (see FIGS. 42 and 43).

Particle strength = assay: Particle strength
Text: Furthermore, a polycrystal with a high particle density also has a high particle strength. When a polycrystal, particularly a spherulite, is used as a raw material for production of drugs, a problem occurs in which wear in a formulation step leads to deterioration of yield or quality or both, and a polycrystal with a high particle strength has an advantage in this regard. When a specifically-shaped crystal obtained by the present invention is a polycrystal, the particle strength is preferably 1.0 MPa or more, more preferably 1.5 MPa or more, still more preferably 2.0 MPa, yet more preferably 2.5 MPa or more, and particularly preferably 3.0 MPa or more. The particle strength is calculated by measuring the force at which a particle breaks when load is applied to one particle and the particle size. Specifically, the particle strength is calculated by the following formula in accordance with JIS R 1639-5. Examples of a measuring device include a particle hardness measuring device NEW GRANO manufactured by OKADA SEIKO CO., LTD. and a micro compression testing machine MCT manufactured by Shimadzu Corporation. […]
The particle strength of the spherulite of esomeprazole magnesium trihydrate obtained in Example 2, the spherulite of esomeprazole magnesium trihydrate obtained in Example 5, and the spherulite of esomeprazole magnesium trihydrate obtained in Example 6 was measured.

[3] = Particle size distribution (d50, sharpness index); set-up: key to sharpness index of the crystal thus obtained / sharpness index of the fine powders: calculated by formula from d10, d50, d90; 1.0 = most uniform particle size; conditions: for d50: samples of dissolution test (Table 4)
Text: d10 in the present description is a value obtained from a particle size distribution analyzer, and represents a particle size of a particle corresponding to 10% of accumulation from the smaller particle side in the particle size distribution based on the volume.
d50 in the present description is a value obtained from a particle size distribution analyzer, and represents a particle size of a particle corresponding to 50% of accumulation from the smaller particle side in the particle size distribution based on the volume.
“Sharpness index” in the present description is an index representing the uniformity of a particle size of a particle in a powder, and a sharpness index of 1.0 represents a powder having the most uniform particle size. The closer the sharpness index is to 1.0, the more the particle size of the powder is uniform. Specifically, the sharpness index represents a value calculated using the following formula from the values of d10, d50, and d90 measured by a particle size distribution analyzer:
Images for measuring the number of particles were obtained by a scanner GT-X830 manufactured by SEIKO EPSON CORPORATION. The powder X-ray diffraction (XRD) was measured using a desktop X-ray diffraction device MiniFlex300 manufactured by Rigaku Corporation. […] The particle strength was measured using a particle hardness measuring device NEW GRANO manufactured by OKADA SEIKO CO., LTD. […] The purity of a compound was measured by a high performance liquid chromatograph (LC-20A) manufactured by Shimadzu Corporation.

[4] = Specific surface area (BET fluid process); conditions: nitrogen, trihydrate
Protocol: as §1, with “Images for measuring the number of particles were obtained by a scanner GT-X830 manufactured by SEIKO EPSON CORPORATION.” left out, “Co., Ltd. Image analysis was performed using image processing software ImageJ developed by the National Institute of Health (NIH). The particle strength was measured using a particle hardness measuring device NEW GRANO manufactured by OKADA SEIKO CO., LTD. The true density was measured using a dry automatic densimeter AccuPyc II 1340-10CC manufactured by Shimadzu Corporation. The purity of a compound was measured by a high performance liquid chromatograph (LC-20A) manufactured by Shimadzu Corporation.” left out

[5] = Measurement of dissolution profile (μDISS Profiler); conditions: 30 mg in 10 mL phosphate buffer pH 6.8, 37° C., 300 rpm
Protocol: The dissolution profile is described by the zero-order model, the first-order model, the Weibull model, the Higuchi model, the Hixson-Crowell model, the Korsmeyer-Peppas model, the Baker-Lonsdale model, the Hopfenberg model, and the like. The Weibull model is represented by the following formula: […]
The particle size distribution was measured in a dry manner using a spray particle size distribution analyzer AEROTRAC LDSA-SPR3500A manufactured by Microtrac Inc. The particle size distribution in Examples 2 and 7 was measured in a dry manner using a laser diffraction particle size distribution measurement MASTERSIZER 3000 manufactured by Malvern Panalytical Ltd. SEM images were measured using a scanning electron microscope JSM-IT100 manufactured by JEOL Ltd. Light microscope images were measured using an upright microscope BX53M manufactured by Olympus Corporation and a microscope digital camera DP74 manufactured by Olympus Corporation. […] The powder X-ray diffraction (XRD) was measured using a desktop X-ray diffraction device MiniFlex300 manufactured by Rigaku Corporation. The specific surface area was measured by the BET fluid process (gas used: pure nitrogen) using a fully automatic specific surface area measuring device Macsorb HM-1208 manufactured by Mountech Co., Ltd. The moisture content was measured using a trace moisture measuring device AQ-2200 manufactured by […] […]

[6] = calculated from d10, d50, d90, trihydrate
[7] = dry particle size distribution, volume based, trihydrate

## COc1ccc2[n-]c([S@@+]([O-])Cc3ncc(C)c(OC)c3C)nc2c1.COc1ccc2[n-]c([S@@+]([O-])Cc3ncc(C)c(OC)c3C)nc2c1.O.O.O.[Mg+2] [Example 3, esomeprazole magnesium trihydrate]
[1]
  equivalent circle diameter: 58±7 μm
[2]; trihydrate
  sphericity of the spherulite: 0.97±0.01

## COc1ccc2[n-]c([S@@+]([O-])Cc3ncc(C)c(OC)c3C)nc2c1.COc1ccc2[n-]c([S@@+]([O-])Cc3ncc(C)c(OC)c3C)nc2c1.O.O.O.[Mg+2] [Example 4, esomeprazole magnesium trihydrate]
[1]
  equivalent circle diameter: 183±8 μm
[2]; trihydrate
  sphericity of the spherulite: 0.93±0.02

## COc1ccc2[n-]c([S@@+]([O-])Cc3ncc(C)c(OC)c3C)nc2c1.COc1ccc2[n-]c([S@@+]([O-])Cc3ncc(C)c(OC)c3C)nc2c1.O.O.O.[Mg+2] [Example 5, esomeprazole magnesium trihydrate]
Particle strength
  Particle strength: 2.3 ± 0.4 MPa
[2]; trihydrate
  sphericity of the spherulite: 0.89±0.05
[3]; [6]
  sharpness index of the crystal thus obtained: 1.4
[3]; [7]
  d50 of the crystal thus obtained: 149.9 μm

## COc1ccc2[n-]c([S@@+]([O-])Cc3ncc(C)c(OC)c3C)nc2c1.COc1ccc2[n-]c([S@@+]([O-])Cc3ncc(C)c(OC)c3C)nc2c1.O.O.O.[Mg+2] [Example 6, esomeprazole magnesium trihydrate]
Particle strength; trihydrate
  Particle strength: 2.9 ± 0.5 MPa
[2]; trihydrate
  sphericity of the spherulite: 0.96±0.01
[3]
  d50 of the crystal thus obtained: 91.5
  sharpness index of the crystal thus obtained: 1.45

## COc1ccc2[n-]c([S@@+]([O-])Cc3ncc(C)c(OC)c3C)nc2c1.COc1ccc2[n-]c([S@@+]([O-])Cc3ncc(C)c(OC)c3C)nc2c1.O.O.O.[Mg+2] [Example 8(1), esomeprazole magnesium trihydrate]
[4]
  Specific surface area: 22.6 m^2/g
[5]
  dissolution compared with the non-spherulite: more rapid dissolution
[2]; trihydrate
  sphericity of the spherulite: 0.95±0.03
[3]; [6]
  sharpness index of the crystal thus obtained: 2.2
[3]; [7]
  d50 of the crystal thus obtained: 33.0 μm
[3]; trihydrate
  d50: 33.0 μm

## Cc1ccccc1C(=O)Nc1ccc(C(=O)N2CCCC(O)c3cc(Cl)ccc32)c(C)c1 (stereo not drawn) [Example 28, tolvaptan]
[1]
  mean particle size: 145 μm
[2]
  sphericity of the spherulite: 0.94±0.02

## COc1cccc(C2(O)CCCCC2CN(C)C)c1 (stereo not drawn) [Example 29, tramadol hydrochloride]
[1]
  mean particle size: 319 μm
[2]
  sphericity of the spherulite: 0.90±0.08

## CN(C)CC/C=C1/c2ccccc2COc2ccc(CC(=O)O)cc21 [Example 31, olopatadine]
[1]
  mean particle size: 167 μm
[2]
  sphericity of the spherulite: 0.96±0.02

## COc1ccc2[n-]c([S@@+]([O-])Cc3ncc(C)c(OC)c3C)nc2c1.COc1ccc2[n-]c([S@@+]([O-])Cc3ncc(C)c(OC)c3C)nc2c1.O.O.O.[Mg+2] [Ground product of non-spherulite, esomeprazole magnesium trihydrate]
[4]
  Specific surface area: 44.0 m^2/g
[2]; non-spherulite crystals, trihydrate
  sphericity of the non-spherulite: 0.45±0.23
[3]; trihydrate
  d50: 5.1 μm
